Experimental findings from US11213512B2, “Bis-amino acid based compound and use thereof” (THE CURATORS OF THE UNIVERSITY OF MISSOURI, priority 2016, dated 2022) are described below.

Where only a bound is given, the exact number is not on record here.

For one data set, the system named is E. coli K12. The data set is described as follows: MIC, CLSI/NCCLS broth microdilution. The format is cell-based, Escherichia coli. Conditions: Escherichia coli, K12, 24 h, read-out: Minimal Inhibitory Concentration (MIC) E. coli K12. On the procedure:
(§1) Two different strains of E. coli (Gram-negative) were used. The laboratory strain of E. coli, K-12 (ATCC Accession No. 700926), was used for preliminary MIC determinations. The tetracycline resistant strain of E. coli (Tet^R) was prepared by transforming competent JM109 E. coli (Promega) with the pBR322 plasmid (Carolina Biologicals) using the manufacturers protocol. This plasmid contains two resistance genes: the tetA gene expresses the tetracycline resistance TetA efflux pump (Sapunaric and Levy, Microbiol. 2005, 151, 2315-2322) and the amp^R gene expresses a β-lactamase enzyme (Bolivar, et al; Gene 1977, 2, 95-113) that cleaves the four membered ring of penicillin derivatives. The resulting E. coli, which we designate Tet^R E. coli, is both tetracycline and ampicillin resistant. The TetA efflux pump belongs to the major facilitator superfamily (MFS), spans the cytoplasmic membrane, and transports tetracycline from the cell cytoplasm to the periplasmic space (Thanassi, et al., J. Bacteriol. 1995, 177, 998-1007). This active efflux utilizes the proton gradient as an energy source (Levy, Antimicrob. Agents Chemother. 1992, 36, 695-703). One Gram-positive strain, S. aureus (ATCC Accession No. 29213), used for MIC study expresses the MFS type NorA efflux pump and is methicillin sensitive. MFS type efflux pumps are clinically relevant for resistance in both Gram-positive and Gram-negative bacteria (Sun, et al., Biochem. Biophys. Res. Commun. 2014, 453, 254-267). A Staphylococcus aureus 1199B strain that overexpresses the NorA efflux pump was also used to conduct checkerboard experiments (see, Example 8 below). This strain of S. aureus 1199B is resistant to both norfloxacin and ethidium bromide.
(§2) K-12 E. coli and S. aureus were acquired from ATCC. The S. aureus strain was used in the BSL-2 facility. K-12 E. coli was grown in L. B. Miller media (Sigma-Aldrich) and S. aureus was grown in cation adjusted MHII media (Sigma-Aldrich). Tet^R E. coli was grown in L. B. Miller media containing 100 μg/mL Ampicillin.
(§3) MIC experiments were performed as described in the Clinical and Laboratory Standards Institute (CLSI) standard microdilution protocols. Bacteria was grown overnight from one CFU in media without antibiotics. Tet^R E. coli was grown in media containing 100 μg/mL Ampicillin. On the day of experiment, bacteria were knocked back to O.D. 600 nm=0.550 in the same media. These exponential phase bacteria were then diluted in antibiotics-free media to get […]. In a 96-well plate either L. B. Miller or MHII media was added followed by serially diluted compounds 1-11, tetracycline, or ampicillin. All the tryptophan based compounds were dissolved in DMSO and the final concentration of DMSO in each well was kept constant at 0.5% (v/v).
(§4) For the combination experiments, first, the BT or control was added to the media in the well followed by the antibiotics. The contents of the well were mixed before adding 20 μL of bacteria to get 4×10^5 CFU/mL per well. The plates were incubated at 37° C., 200 RPM for 24 hours before collecting results on the Biotek Cytation 3 plate reader. No more than three plates were stacked on top of each other at a time. Optical density of the wells was determined at λ=600 nm. Cells alone were considered as 0% inhibition and media alone was considered as 100% inhibition. Any inhibition greater than 80% was considered as the MIC. The results were reproduced three times before reporting.
(§5) All minimum inhibitory concentration (MIC) values for compounds 1-11 were determined according to the methods prescribed by the National Committee for Clinical Laboratory Standards (NCCLS, Methods for Dilution Antimicrobial Susceptibility Tests for Bacteria that grow aerobically; National Committee for Clinical Laboratory Standards 2000, 5th Edition, M7-A5). […]
In general terms: Broth dilution looks for growth in wells or tubes with falling amounts of substance.

A further data set concerns Tet^R E. coli. The data set is described as follows: MIC, CLSI/NCCLS broth microdilution. The format is cell-based, Escherichia coli. Particulars: 24 h; for MIC: Escherichia coli, read-out: Minimal Inhibitory Concentration (MIC) E. coli Tet^R; for Minimal Inhibitory Concentration (MIC) E. coli Tet^R: >80% growth inhibition, 37° C., substance alone. On the procedure:
as §1, §2, §3, §4, §5

Another data set relates to Cos-7 cells. The data set is described as follows: Cytotoxicity to mammalian cells, XTT assay. The format is cell-based, Cercopithecus aethiops. Conditions: 24 h; for cytotoxicity to Cos-7 (in words): at MIC against Tet^R E. coli (2: 48, 7: 128, 10: 10 μM); for percent survival Cos-7: at MIC against Tet^R E. coli (2: 48, 3: 28, 5: 56, 6: 120, 7: 128, 10: 10 μM); for survival of Cos-7 (in words): two-fold increase over MIC / highest concentrations tested. On the procedure:
It was initially hypothesized that antimicrobial activity resulted from membrane disruption. Membrane active compounds are often cytotoxic to mammalian cells (Shai, Biopolymers 2002, 66, 236-48; Shai, et al., Curr. Protein Pept. Sci. 2006, 7, 479-86). The survival of three mammalian epithelial cell lines was assayed for 2, 3, 5, and 10. […] The cell lines studied were human embryonic kidney (HEK-293), human cervix epithelial (HeLa, ATCC Accession No. CCL-2), and Cercopithecus aethiops kidney (Cos-7, ATCC Accession No. CRL 1651). HeLa cells were acquired from ATCC. Cos-7 and HEK-293 cells were donated by colleagues. Cell lines were regularly maintained in growth media containing DMEM (ATCC), 10% fetal bovine serum (FBS, ATCC) and 1% penicillin-streptomycin solution (ATCC). Adherent HEK-293, HeLa and Cos-7 cells were trypsinized using 0.25% (w/v) trypsin-EDTA (Sigma-Aldrich), suspended in a fresh media and diluted to get a concentration of 3×10^5 cells/ml. Cells were seeded in a 96-well plate (100 μL/well) to get 3×10^4 cells/well. The plates were incubated for 24 hours at 5% CO2 and 37° C. to reach a confluency of 80-90%.
In a sterile 1.5 mL micro-centrifuge tube, compounds 2, 3, 5, 6, 7 and 10 (0.5% DMSO) were mixed with assay media (DMEM+10% FBS) and serially diluted by 2-fold each to get 2[MIC], [MIC], ½[MIC] and ¼ [MIC] concentrations. A control containing 0.5% DMSO was also prepared. After 24 hours, the spent media in the 96-well plate containing HEK-293, HeLa and Cos-7 cells (90% confluency) was replaced with 100 μL media containing the compounds 2, 3, 5, 6, 7 and 10 at various concentrations. The cells were incubated at 37° C. and 5% CO2 for 24 hours before performing XTT assay (Sigma-Aldrich). The XTT assay was performed according to the manufacturer's protocol. After 24 hours of treatment with compounds, the media was replaced with PBS and 25 μL XTT was added to each well. The XTT assay works by the reduction of tetrazolium compound by alive cells to the colored soluble formazan product. The absorbance of the product was measured at 450 nm (XTT) and 690 nm (background). Percent survival was calculated by comparing the average absorbance of cells treated with compounds 2, 3, 5, 6, 7, and 10 to that of cells alone. Two replicates for each treatment were determined. Average percent survival and standard deviation were calculated.
Cells were cultured for 24 h in 96-well plates and treated with media containing concentrations using [MIC] and [MIC]×2 determined previously for Tet^R E. coli. The number of surviving cells was determined using an XTT assay (Sigma-Aldrich); the results are represented as percent survival in FIG. 2. Cells alone were used as controls and established 100% survival. The data represent two replicates of three trials and the error bars represent the standard deviation.

For `Cl.Cl.N[C@@H](Cc1c[nH]c2ccccc12)C(=O)NCCCNC(=O)[C@@H](N)Cc1c[nH]c2ccccc12` [Compound 7, (2S,2′S)-1,1′-(Propane-1,3-diylbis(azanediyl))bis(3-(1H-indol-3-yl)-1-oxopropan-2-aminium) chloride], the MIC in the data set on E. coli K12 and in the data set on Tet^R E. coli was over 128 µM each time. For the same molecule, in the data set with Cos-7 cells, the “cytotoxicity to Cos-7 (in words)” value is “minimally toxic”.
For `Cl.Cl.N[C@@H](Cc1c[nH]c2ccccc12)C(=O)Nc1ccc(NC(=O)[C@@H](N)Cc2c[nH]c3ccccc23)cc1` [Compound 6, (2S,2′S)-1,1′-(1,4-Phenylenebis(azanediyl))bis(3-(1H-indol-3-yl)-1-oxopropan-2-aminium) chloride], the MIC in the data set on E. coli K12 turned out to be 128 µM; with Tet^R E. coli it was 120 ± 14 µM. The “percent survival Cos-7” value in the data set with Cos-7 cells stood at 100%.
Turning to `Cl.Cl.N[C@@H](Cc1c[nH]c2ccccc12)C(=O)Nc1ccccc1NC(=O)[C@@H](N)Cc1c[nH]c2ccccc12` [Compound 5, (2S,2′S)-1,1′-(1,2-Phenylenebis(azanediyl))bis(3-(1H-indol-3-yl)-1-oxopropan-2-aminium) chloride], the MIC was 64 µM in the data set with E. coli K12 and 56 ± 8 µM with Tet^R E. coli. The “percent survival Cos-7” value in the data set with Cos-7 cells turned out to be 100%. The “survival of Cos-7 (in words)” value with Cos-7 cells was “unaffected”.
Regarding `Cl.Cl.N[C@H](Cc1c[nH]c2ccccc12)C(=O)Nc1cccc(NC(=O)[C@H](N)Cc2c[nH]c3ccccc23)c1` [Compound 3, (2R,2′R)-1,1′-(1,3-Phenylenebis(azanediyl))bis(3-(1H-indol-3-yl)-1-oxopropan-2-aminium) chloride], in the data set on E. coli K12, the MIC is 64 µM. Also, in the data set on Tet^R E. coli, the “Minimal Inhibitory Concentration (MIC) E. coli Tet^R” value is 28 ± 4 µM and the MIC was found to be 28 ± 4 µM. Further, the “percent survival Cos-7” value in the data set with Cos-7 cells turned out to be 100%.
On to `Cl.Cl.N[C@H](Cc1c[nH]c2ccccc12)C(=O)NCCCCCCCCCCCCNC(=O)[C@@H](N)Cc1c[nH]c2ccccc12` [Compound 10, (S)-1-((12-((R)-2-Ammonio-3-(1H-indol-3-yl)propanamido)dodecyl)amino)-3-(1H-indol-3-yl)-1-oxopropan-2-aminium chloride], for which the results for the MIC with E. coli K12 and in the data set on Tet^R E. coli were 8 µM and 10 ± 2 µM, respectively. The “cytotoxicity to Cos-7 (in words)” value in the data set on Cos-7 cells is on record as “minimally toxic”.
Regarding `Cl.Cl.N[C@@H](Cc1c[nH]c2ccccc12)C(=O)Nc1cccc(NC(=O)[C@@H](N)Cc2c[nH]c3ccccc23)c1` [Compound 2, (2S,2′S)-1,1′-(1,3-Phenylenebis(azanediyl))bis(3-(1H-indol-3-yl)-1-oxopropan-2-aminium) chloride], the MIC in the data set with E. coli K12 turned out to be 64 µM. Moreover, in the data set with Tet^R E. coli, the “Minimal Inhibitory Concentration (MIC) E. coli Tet^R” value turned out to be 48 ± 8 µM and the MIC was 48 ± 8 µM. For the same molecule, in the data set on Cos-7 cells, the “percent survival Cos-7” value amounted to 100%, the “cytotoxicity to Cos-7 (in words)” value is “no cytotoxicity” and the “survival of Cos-7 (in words)” value is recorded as “unaffected”.
